Source: patent US10456343B2, “Microemulsion compositions comprising polydatin and method of use” (L'OREAL, priority 2017, dated 2019)

Assay: Solubility of polydatin in the microemulsion compositions
Type: physicochemical
Details: solubilized in microemulsion
Description: The inventors of the instant disclosure discovered that the incorporation of polydatin into the microemulsion compositions disclosed herein results in a variety of surprising and unexpected results. […] A higher amount of solubilized polydatin is particularly beneficial in cosmetic compositions for application to the skin because it allows for increased transdermal delivery. The inventors also unexpectedly discovered that polydatin acts as a “clarifying agent,” i.e., it improves or enhances the transparency (clarity) of microemulsion compositions. […] Both formulations include baicalin. […] Thus, in addition to polydatin, the microemulsion composition of the instant disclosure are effective for incorporating baicalin into cosmetic and/or pharmaceutical compositions.

Structure (SMILES): OC[C@H]1O[C@@H](Oc2cc(O)cc(/C=C/c3ccc(O)cc3)c2)[C@H](O)[C@@H](O)[C@@H]1O [polydatin, 3,4′,5-trihydroxystibene-3-β-mono-D glucoside]
- solubility of polydatin in the microemulsion compositions: up to 1.5%
